From PubChem BioAssay (NCI)
Several values for one entry are separate records, joined by “and”; a condition that tells them apart may be missing. Identical values can stand only once.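 96-well plates; 48 h exposure; 5 concentrations. Endpoints by linear interpolation between flanking doses. Not reached: highest tested concentration assigned. GI50: concentration for 50% inhibition of growth. At the TGI there is no net growth.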 Where a SMILES comes first, the peptide text is derived from it. [ ]: non-standard residue; d: D form. The star is where a group is joined. NMeF = CN[CH](Cc1ccccc1)C(=O)O; NMeV = CN[CH](C(=O)O)C(C)C; Boc = CC(C)(C)OC(=O)*; OBn = c1ccc(CO*)cc1

Experiments:
Test in all cases: NCI tumour cell line growth inhibition, 48 h
LOX IMVI melanoma = tested on: LOX IMVI melanoma
RPMI-8226 leukemia = tested on: RPMI-8226 leukemia
SR leukemia = tested on: SR leukemia
IGROV1 ovarian = tested on: IGROV1 ovarian
SW-620 colon = tested on: SW-620 colon
SK-MEL-5 melanoma = tested on: SK-MEL-5 melanoma
ACHN renal = tested on: ACHN renal
CCRF-CEM leukemia = tested on: CCRF-CEM leukemia
M19-MEL melanoma = tested on: M19-MEL melanoma
MALME-3M melanoma = tested on: MALME-3M melanoma
NCI-H522 lung = tested on: NCI-H522 lung
M14 melanoma = tested on: M14 melanoma
HOP-62 NSCLC = tested on: HOP-62 NSCLC
K-562 leukemia = tested on: K-562 leukemia
U251 CNS = tested on: U251 CNS
NCI-H226 lung = tested on: NCI-H226 lung
KM12 colon = tested on: KM12 colon
KM20L2 colon = tested on: KM20L2 colon
EKVX NSCLC = tested on: EKVX NSCLC
HL-60(TB) leukemia = tested on: HL-60(TB) leukemia
DMS 273 small cell lung = tested on: DMS 273 small cell lung
SK-MEL-28 melanoma = tested on: SK-MEL-28 melanoma
HCT-15 colon = tested on: HCT-15 colon
MOLT-4 leukemia = tested on: MOLT-4 leukemia
HCT-116 colon = tested on: HCT-116 colon
SNB-19 CNS = tested on: SNB-19 CNS
XF 498 CNS = tested on: XF 498 CNS
HCC-2998 colon = tested on: HCC-2998 colon
SK-OV-3 ovarian = tested on: SK-OV-3 ovarian
UACC-257 melanoma = tested on: UACC-257 melanoma
NCI-H460 lung = tested on: NCI-H460 lung
UO-31 renal = tested on: UO-31 renal
DMS 114 small cell lung = tested on: DMS 114 small cell lung
NCI-H23 lung = tested on: NCI-H23 lung
SN12C renal = tested on: SN12C renal
OVCAR-8 ovarian = tested on: OVCAR-8 ovarian
TK-10 renal = tested on: TK-10 renal
SF-539 CNS = tested on: SF-539 CNS
LXFL 529 NSCLC = tested on: LXFL 529 NSCLC
786-0 renal = tested on: 786-0 renal
SF-295 CNS = tested on: SF-295 CNS
A549 NSCLC = tested on: A549 NSCLC
HT29 colon = tested on: HT29 colon
COLO 205 colon = tested on: COLO 205 colon
UACC-62 melanoma = tested on: UACC-62 melanoma
SF-268 CNS = tested on: SF-268 CNS
OVCAR-3 ovarian = tested on: OVCAR-3 ovarian

## CC(C)C(NC(=O)OC(C)(C)C)C(=O)N(C)C(Cc1ccccc1)C(=O)N(C)C(C(=O)OCc1ccccc1)C(C)C (stereo not drawn) (Boc-Val-[NMeF]-[NMeV]-OBn; configuration not given here)
LOX IMVI melanoma
  GI50: 16.3 µM and 62.9 µM
  TGI: 35.7 µM and > 100 µM
RPMI-8226 leukemia
  GI50: 10.8 µM and 25.3 µM
  TGI: > 100 µM
SR leukemia
  TGI: > 100 µM and 96.2 µM
IGROV1 ovarian
  TGI: > 100 µM
SW-620 colon
  TGI: > 100 µM
SK-MEL-5 melanoma
  TGI: 44.6 µM
ACHN renal
  GI50: > 100 µM and 41 µM
  TGI: > 100 µM
CCRF-CEM leukemia
  GI50: 17.8 µM and 39.1 µM
  TGI: > 100 µM
M19-MEL melanoma
  GI50: 87.4 µM and 42.2 µM
  TGI: > 100 µM
MALME-3M melanoma
  TGI: > 100 µM
NCI-H522 lung
  TGI: 29.7 µM and 69 µM
M14 melanoma
  TGI: > 100 µM
HOP-62 NSCLC
  TGI: > 100 µM
K-562 leukemia
  GI50: 12.1 µM and 51.4 µM
  TGI: 95.6 µM and > 100 µM
U251 CNS
  TGI: > 100 µM
NCI-H226 lung
  TGI: > 100 µM
KM12 colon
  GI50: 38.2 µM and 82.9 µM
  TGI: > 100 µM
KM20L2 colon
  GI50: > 100 µM and 49.3 µM
  TGI: > 100 µM
EKVX NSCLC
  TGI: > 100 µM
HL-60(TB) leukemia
  TGI: > 100 µM and 53.9 µM
DMS 273 small cell lung
  TGI: > 100 µM
SK-MEL-28 melanoma
  TGI: > 100 µM
HCT-15 colon
  TGI: > 100 µM
MOLT-4 leukemia
  GI50: 5.92 µM and 14.8 µM
  TGI: 39.6 µM and 44 µM
HCT-116 colon
  TGI: > 100 µM
SNB-19 CNS
  GI50: > 100 µM and 32.8 µM
  TGI: > 100 µM
XF 498 CNS
  GI50: 3.54 µM and 28.6 µM
  TGI: 9.63 µM and 74.8 µM
HCC-2998 colon
  TGI: > 100 µM
SK-OV-3 ovarian
  TGI: > 100 µM
UACC-257 melanoma
  GI50: 20.5 µM and 44.3 µM
  TGI: > 100 µM
NCI-H460 lung
  TGI: > 100 µM
UO-31 renal
  TGI: > 100 µM
DMS 114 small cell lung
  TGI: > 100 µM
NCI-H23 lung
  TGI: > 100 µM
SN12C renal
  GI50: 44.3 µM and > 100 µM
  TGI: > 100 µM
OVCAR-8 ovarian
  TGI: > 100 µM
TK-10 renal
  TGI: > 100 µM
SF-539 CNS
  GI50: 16.4 µM and 78.4 µM
  TGI: > 100 µM
LXFL 529 NSCLC
  GI50: 14.1 µM and 33.2 µM
  TGI: > 100 µM
786-0 renal
  TGI: > 100 µM
SF-295 CNS
  TGI: > 100 µM
A549 NSCLC
  TGI: > 100 µM
HT29 colon
  TGI: 32.3 µM and > 100 µM
COLO 205 colon
  TGI: > 100 µM
UACC-62 melanoma
  TGI: > 100 µM
SF-268 CNS
  TGI: > 100 µM
OVCAR-3 ovarian
  GI50: 35.5 µM and > 100 µM
  TGI: > 100 µM
